The source made the active and inactive calls.
Legend:
[1] = target: Major prion protein (Homo sapiens, UniProt P04156); format: functional, cell-based
[2] = cells
[3] = target: T1, RNA-binding protein pos-1 (Caenorhabditis elegans, UniProt G5EF15); assay: disruptors of C. elegans POS-1 RNA interaction – biochemical, fluorescence polarization, dose response (AID 1964);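 further: purified POS-1 fused to maltose binding protein made in E. coli; potency of compounds blocking POS-1 binding to fluorescent RNA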
T1 sequence (G5EF15 whole entry): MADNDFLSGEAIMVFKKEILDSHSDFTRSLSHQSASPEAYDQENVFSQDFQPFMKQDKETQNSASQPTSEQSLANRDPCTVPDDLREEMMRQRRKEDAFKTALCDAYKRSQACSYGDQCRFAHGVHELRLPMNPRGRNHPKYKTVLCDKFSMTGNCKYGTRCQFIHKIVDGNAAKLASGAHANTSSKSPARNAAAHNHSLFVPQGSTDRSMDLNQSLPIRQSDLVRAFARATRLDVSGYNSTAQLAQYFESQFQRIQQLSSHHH

[4] = test system: Streptococcus sp. 'group A'; assay: Streptococcus pyogenes SK(-)GAS viability under kanamycin – luminescence, BacTiterGlo, confirmation, counter-screen for streptokinase expression inhibitor project, dose response (AID 1900); format: functional, organism-based
[5] = target: T2, Zinc finger protein mex-5 (Caenorhabditis elegans, UniProt Q9XUB2); assay: potency of MEX-5 RNA-binding blockers – biochemical, C. elegans, fluorescence polarization, dose response (AID 1960)
T2 sequence (Q9XUB2 whole entry): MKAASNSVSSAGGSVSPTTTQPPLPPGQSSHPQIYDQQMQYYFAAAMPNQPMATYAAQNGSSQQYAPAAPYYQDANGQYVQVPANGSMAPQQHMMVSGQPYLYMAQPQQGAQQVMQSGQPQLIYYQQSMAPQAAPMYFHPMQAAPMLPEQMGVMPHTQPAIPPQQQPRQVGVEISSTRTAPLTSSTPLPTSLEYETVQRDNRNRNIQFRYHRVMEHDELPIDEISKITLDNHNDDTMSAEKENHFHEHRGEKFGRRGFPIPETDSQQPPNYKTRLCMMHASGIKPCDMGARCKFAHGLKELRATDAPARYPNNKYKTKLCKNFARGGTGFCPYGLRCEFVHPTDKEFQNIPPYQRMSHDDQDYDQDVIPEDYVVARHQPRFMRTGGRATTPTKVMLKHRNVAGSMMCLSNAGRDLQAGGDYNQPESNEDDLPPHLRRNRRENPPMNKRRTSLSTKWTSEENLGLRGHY

[6] = target: T3, Streptokinase A (Streptococcus pyogenes serotype M1, UniProt P10520); assay: viability-normalized secreted streptokinase activity reduction – plasminogen activation absorbance, OD405, dose response (AID 1914); format: functional, Streptococcus pyogenes M1 GAS;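 further: secreted streptokinase activity via plasminogen activation per viability signal from cell pellet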
T3 sequence (P10520 whole entry): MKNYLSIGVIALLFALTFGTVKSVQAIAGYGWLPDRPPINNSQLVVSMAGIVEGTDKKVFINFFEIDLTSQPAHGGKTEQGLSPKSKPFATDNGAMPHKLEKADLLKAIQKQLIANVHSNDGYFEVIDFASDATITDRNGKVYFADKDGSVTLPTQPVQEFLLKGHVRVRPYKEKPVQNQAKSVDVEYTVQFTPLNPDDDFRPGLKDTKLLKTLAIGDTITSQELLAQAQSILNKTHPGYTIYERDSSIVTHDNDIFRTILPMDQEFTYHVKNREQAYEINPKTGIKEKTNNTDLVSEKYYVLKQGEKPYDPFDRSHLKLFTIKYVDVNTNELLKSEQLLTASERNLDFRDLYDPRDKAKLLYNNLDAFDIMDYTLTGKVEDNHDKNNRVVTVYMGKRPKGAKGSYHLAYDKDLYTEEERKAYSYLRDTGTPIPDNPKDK

[7] = test system: Streptococcus; assay: GAS UMAA2166 growth inhibition – luminescence, BacTiterGlo, counter-screen for streptokinase expression inhibitor project, dose response (AID 1915); format: functional, organism-based;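 further: potency for reduction of bacterial viability or growth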
[8] = target: T4, Probable nicotinate-nucleotide adenylyltransferase (Staphylococcus aureus (strain N315), UniProt P65502); format: functional, Staphylococcus aureus subsp. aureus N315;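 on IC50 Mean: confirmatory dose-response retesting of NadD inhibitor hits first found in an ultra-high-throughput screen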
T4 sequence (P65502 whole entry): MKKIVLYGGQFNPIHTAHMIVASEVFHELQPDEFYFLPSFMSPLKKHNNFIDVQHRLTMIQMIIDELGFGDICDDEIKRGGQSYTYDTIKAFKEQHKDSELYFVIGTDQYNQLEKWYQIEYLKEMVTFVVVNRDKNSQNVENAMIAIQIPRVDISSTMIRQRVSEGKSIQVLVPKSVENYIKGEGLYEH

[9] = target: T4, Probable nicotinate-nucleotide adenylyltransferase; format: functional, Staphylococcus aureus subsp. aureus N315; details: read-out: IC50_Mean
[10] = target: T5, Rac GTPase-activating protein 1 (Homo sapiens, UniProt Q9H0H5); assay: blockers of MgcRacGAP-driven Rac1 GTP hydrolysis – biochemical, ADP Hunter fluorescence, primary and confirmatory, confirmation (AID 624330); format: functional
T5 sequence (Q9H0H5 whole entry): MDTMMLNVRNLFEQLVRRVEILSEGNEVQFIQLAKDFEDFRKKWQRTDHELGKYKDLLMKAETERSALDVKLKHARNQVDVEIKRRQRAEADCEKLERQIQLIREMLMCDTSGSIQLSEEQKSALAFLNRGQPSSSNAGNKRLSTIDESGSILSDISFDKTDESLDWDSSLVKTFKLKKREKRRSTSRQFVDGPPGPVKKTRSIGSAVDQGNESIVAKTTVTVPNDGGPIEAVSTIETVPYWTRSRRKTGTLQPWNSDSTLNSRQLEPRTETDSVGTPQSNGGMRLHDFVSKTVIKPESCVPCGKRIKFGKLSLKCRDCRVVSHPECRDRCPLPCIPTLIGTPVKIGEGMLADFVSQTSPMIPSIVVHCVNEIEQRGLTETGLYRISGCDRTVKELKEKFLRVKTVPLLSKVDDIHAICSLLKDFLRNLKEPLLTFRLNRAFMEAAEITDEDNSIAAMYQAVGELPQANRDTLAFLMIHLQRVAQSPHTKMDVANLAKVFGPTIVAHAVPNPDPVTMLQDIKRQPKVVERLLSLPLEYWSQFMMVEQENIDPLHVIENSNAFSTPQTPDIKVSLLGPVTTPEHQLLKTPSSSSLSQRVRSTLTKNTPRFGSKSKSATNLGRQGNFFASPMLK

[11] = test system: BJ; assay: BJ-TERT fibroblast viability loss – cell-based, RAS-independent, luminescence, dose response (AID 1933); format: functional; details: Homo sapiens
[12] = test system: BJ; assay: cells; format: functional, cell-based; details: Homo sapiens
[13] = Trypanosoma cruzi growth suppression in host cells – NIH3T3 host cells, beta-gal luminescence, confirmation (AID 2044); format: functional, cell-based;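 further: intracellular parasites grown in NIH/3T3 mouse fibroblasts as host cells; luminescent beta-galactosidase reporter signal from transgenic T. cruzi replicating inside host cells; inhibitors lower the luminescence signal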
[14] = NIH3T3 cell viability loss – ATP luminescence, mouse fibroblasts, counter-screen, dose response (AID 2010); format: functional, cell-based;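 further: cells exposed to compound for about 90 hours before reading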
[15] = test system: BJ; assay: BJ-TERT-LT-ST fibroblast viability loss – cell-based, RAS-independent, luminescence, dose response (AID 1935); format: functional; details: Homo sapiens;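 further: BJ fibroblasts immortalized with TERT plus LT and ST oncogenes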
[16] = DRD fibroblast viability loss – cell-based, non-viral oncogenic, luminescence, dose response (AID 1934); format: functional; details: Homo sapiens
[17] = target: T6, Replicative DNA helicase DnaB (Mycobacterium tuberculosis, UniProt P9WMR3); assay: DnaB intein splicing inhibitors, dose response, biochemical, cell-free fluorescence (AID 449749); format: functional
T6 sequence (P9WMR3 whole entry): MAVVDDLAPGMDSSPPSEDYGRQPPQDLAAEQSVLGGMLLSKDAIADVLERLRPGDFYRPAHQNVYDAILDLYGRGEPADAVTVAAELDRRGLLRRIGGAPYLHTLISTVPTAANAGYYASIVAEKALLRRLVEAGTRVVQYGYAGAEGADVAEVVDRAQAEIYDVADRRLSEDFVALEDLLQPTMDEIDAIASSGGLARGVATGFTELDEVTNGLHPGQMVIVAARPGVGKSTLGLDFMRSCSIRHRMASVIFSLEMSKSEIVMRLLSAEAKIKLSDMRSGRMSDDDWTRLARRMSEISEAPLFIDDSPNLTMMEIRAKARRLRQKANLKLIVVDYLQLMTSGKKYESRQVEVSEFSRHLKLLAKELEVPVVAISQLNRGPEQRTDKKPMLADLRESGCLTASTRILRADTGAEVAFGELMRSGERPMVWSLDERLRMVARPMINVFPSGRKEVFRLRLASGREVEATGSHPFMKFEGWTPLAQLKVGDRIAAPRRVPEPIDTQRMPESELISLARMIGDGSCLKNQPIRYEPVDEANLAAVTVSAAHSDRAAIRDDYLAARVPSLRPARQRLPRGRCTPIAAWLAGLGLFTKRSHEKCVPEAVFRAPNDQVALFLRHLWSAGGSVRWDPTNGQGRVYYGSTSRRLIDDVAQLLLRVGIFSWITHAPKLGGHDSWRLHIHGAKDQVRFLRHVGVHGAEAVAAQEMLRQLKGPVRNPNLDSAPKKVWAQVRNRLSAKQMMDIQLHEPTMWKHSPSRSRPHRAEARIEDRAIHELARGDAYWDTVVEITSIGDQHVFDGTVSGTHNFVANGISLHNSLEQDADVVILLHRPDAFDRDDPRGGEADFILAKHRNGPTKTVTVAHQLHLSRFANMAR

[18] = target: T7, Protein RecA (Mycobacterium tuberculosis, UniProt P9WHJ3); assay: Fluorescence Cell-Free Homogeneous Dose Retest to Identify Inhibitors of RecA-Intein Splicing Activity. [Related pubchem assays (depositor defined):AID2097, AID2223, AID489010, AID492950]; format: functional
T7 sequence (P9WHJ3 whole entry): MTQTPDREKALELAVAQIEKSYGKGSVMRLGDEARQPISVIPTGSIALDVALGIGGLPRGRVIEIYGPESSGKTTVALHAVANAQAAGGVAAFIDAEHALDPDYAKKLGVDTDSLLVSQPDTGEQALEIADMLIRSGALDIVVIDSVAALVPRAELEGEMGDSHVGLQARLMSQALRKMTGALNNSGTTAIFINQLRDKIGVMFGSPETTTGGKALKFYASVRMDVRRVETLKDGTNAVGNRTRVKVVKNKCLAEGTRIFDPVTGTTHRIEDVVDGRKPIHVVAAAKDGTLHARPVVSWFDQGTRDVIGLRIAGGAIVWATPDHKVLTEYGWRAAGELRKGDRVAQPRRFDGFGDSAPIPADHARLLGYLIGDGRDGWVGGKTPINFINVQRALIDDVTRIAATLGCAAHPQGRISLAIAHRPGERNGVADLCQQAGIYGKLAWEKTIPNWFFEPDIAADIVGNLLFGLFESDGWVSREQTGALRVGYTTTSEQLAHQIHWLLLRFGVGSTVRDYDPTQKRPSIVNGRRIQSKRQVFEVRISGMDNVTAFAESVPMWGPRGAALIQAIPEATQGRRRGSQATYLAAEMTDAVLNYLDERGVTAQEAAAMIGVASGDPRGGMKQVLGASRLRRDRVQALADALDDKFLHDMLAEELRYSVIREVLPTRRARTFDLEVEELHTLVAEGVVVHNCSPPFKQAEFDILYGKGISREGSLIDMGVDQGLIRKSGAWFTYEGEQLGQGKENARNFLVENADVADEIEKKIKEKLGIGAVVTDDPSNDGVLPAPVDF

[19] = target: Paired box protein Pax-8 (Homo sapiens, UniProt Q06710); assay: PAX8 transcriptional activity inhibition in RMG-I – RMG-I cells, luciferase, cherry-pick, dose response (AID 687027); format: functional, cell-based;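 further: luciferase reporter driven by Pax8 target thyroperoxidase promoter measured by SteadyGlo luminescence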
Chain of Paired box protein Pax-8 (Q06710 whole entry): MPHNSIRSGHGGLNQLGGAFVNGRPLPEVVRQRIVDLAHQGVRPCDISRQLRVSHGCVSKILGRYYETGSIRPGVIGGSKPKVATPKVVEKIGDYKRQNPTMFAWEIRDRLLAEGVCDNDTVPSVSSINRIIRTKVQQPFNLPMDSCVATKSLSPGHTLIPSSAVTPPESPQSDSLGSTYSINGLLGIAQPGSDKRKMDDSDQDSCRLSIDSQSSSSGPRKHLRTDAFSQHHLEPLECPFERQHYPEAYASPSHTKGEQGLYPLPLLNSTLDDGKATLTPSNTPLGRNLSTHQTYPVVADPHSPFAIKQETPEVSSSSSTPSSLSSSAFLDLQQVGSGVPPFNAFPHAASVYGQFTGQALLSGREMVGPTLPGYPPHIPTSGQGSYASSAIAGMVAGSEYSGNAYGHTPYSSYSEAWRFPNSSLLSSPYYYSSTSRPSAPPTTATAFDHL

[20] = general cell-killing toxicity readout – plate reader, dry powder samples, cytotoxicity control for PAX8 inhibitor project, dose response (AID 743021); format: functional, cell-based
[21] = test system: H9c2; assay: cells; format: functional, cell-based; details: Rattus norvegicus, H9c2, Myocardium;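 further: confirmatory concentration-response retest of ultra-high-throughput screening hits for modulation of myocardial damage; cell death induced by hydrogen peroxide oxidative stress; compound pretreatment for 60 min then peroxide exposure for 2 h; potency is for protecting the cells against peroxide damage rather than for killing them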

## COc1ccccc1Cn1c(=S)[nH]c2ccc(F)cc2c1=O
[1]
  IC50: 0.412 µM (active)
[2]
  IC50: > 138 µM (inactive)

## CC(C)(C)C(=O)NNC(=O)COc1ccc2ccccc2c1Br
[1]
  IC50: 4.91 µM (active)
[2]
  IC50: > 138 µM (inactive)

## Cc1cccc2sc(NNC(=O)c3cc(=O)c4ccccc4o3)nc12
[3]
  EC50: > 300 µM (not active)
[4]
  EC50: 0.449 µM (active)
[5]
  EC50: > 300 µM (not active)
[6]
  EC50: > 150 µM (not active)
[7]
  EC50: 7.43 µM (active)
[8]
  IC50: 5.9 µM (active)
[9]
  IC50: 35.2 µM (active)
[10]
  IC50: 94 µM (active)

## CC(C)N(CC(=O)Nc1ccc(Cl)cc1C(F)(F)F)C(=O)CCl
[11]
  EC50: 6.85 µM (inconclusive)
[12]
  EC50: 16.9 µM (active)
[13]
  EC50: 3.38 µM (active)
[14]
  EC50: 11.9 µM (active)
[15]
  EC50: > 150 µM (inconclusive)
[16]
  EC50: 6.62 µM (active)
[17]
  AC50: < 0.018 µM (inconclusive)
[18]
  EC50: 6.09 µM (active)
[19]
  AC50: 5.06 µM (active)
[20]
  AC50: 10 µM (active)

## COc1cccc(Nc2nc(-c3sc(NC(=O)c4ccco4)nc3C)cs2)c1
[21]
  IC50: > 79 µM (inactive)
[8]
  IC50: 13.5 µM (active)
[9]
  IC50: 33.2 µM (active)
